Reference: US6448283B1, “Methods for preventing/treating damage to sensory hair cells and cochlear neurons” (Cephalon, Inc., priority 1998, dated 2002)
Values joined by “and” are separate entries in the source; they are usually repeats but may differ in a detail not shown here. Equal entries are not always repeated.

Columns and labels:
[1] = test system: outer sensory hair cells of the organ of Corti; experiment: Cytocochleogram counts of lost outer sensory hair cells after noise trauma (Example 1); type: in vivo, guinea pig; details: day 21
Experimental: Baseline hearing of 8 pigmented guinea pigs (200-300 g) was tested by ABR as described below. ABR is a measure of hearing function. Four animals were treated with daily subcutaneous (s.c.) injections of the compound of Formula II, 1 mg/kg, starting 24 hours prior to noise trauma and lasting until 21 days after exposure to the noise trauma. Four animals served as controls and received only vehicle (the fourth animal died under anaesthesia). All the animals were exposed to traumatic octave band noise, center frequency 4.0 kHz, 125 dB SPL (sound pressure level) for 105 min.
After the treatment period of 21 days and measurement of ABRs, the animals were sacrificed and the temporal bones fixed by 4% PFA (paraformaldehyde) through perilymphatic perfusion. The left cochleas were dissected for surface specimens and the number of sensory hair cells in each auditory organ was evaluated by cytocochleograms. The upper halves of the cochleas were processed for cytocochleograms without embedding by staining cochlear whole mounts with rhodamine phalloidine (Molecular Probes, Eugene, Ore.) in PBS containing 0.25% Triton X-100 overnight at 4° C and mounted in Vectashield (Vector). Phalloidin is a specific marker for cellular F-actin. Basal halves of the cochleas were embedded in
Epon and processed for cytocochleograms. Selected sections of Epon-embedded cochlear turns were processed for fine structural study by electron microscopy.

[2] = test system: noise-exposed guinea pigs; experiment: ABR threshold shifts, delayed dosing after noise trauma; type: in vivo, guinea pig
Experimental: Guinea pigs were exposed to 120 dB, 4 kHz noise for 6 hr. The compound of Formula II was administered beginning 2 hours to 1 day prior to noise trauma, or 1 day after noise trauma, or 4 days after noise trauma. Dosing continued for 2 weeks after noise exposure. As described above, cochleas were prepared and numbers of preserved and lost inner hair cells (IHCs) and outer hair cells of different rows (OHC1, OHC2, OHC3) were counted 2 weeks post noise trauma.
ABRs were determined 1 day before noise trauma (baseline values) and 2 weeks post noise trauma. […] Thresholds were determined at frequencies 2, 4, 8, 16 and 32 kHz from a set of responses at varying intensities with 5 dB intervals and 1000 sweeps near the threshold. ABRs were measured with System II hardware and BioSig software. Ketamine (40 mg/kg) and xylazine (10 mg/kg) were used for anaesthesia.

[3] = test system: hair cells of cochlear explants; experiment: TUNEL staining of hair cells in neomycin-exposed cochlear explants; type: cell-based, rat; details: 500 nM Formula II coincubated with neomycin; n=5 explants
Experimental: Six, 12 and 24 hr after adding 100 μM neomycin to the medium, cochlear cultures were fixed with 4% paraformaldehyde in PBS for 30 min. The specimens were prepared for 5 um-thick paraffin sections. They were stained with a TUNEL-kit, mounted in Vectashield containing DAPI nuclear counterstain (Vector, Burlingame, Calif.), and viewed under an Olympus Provis microscope (Tokyo, Japan) using epifluorescence. In addition to TUNEL-staining, DNA fragmentation was verified under UV illumination using DAPI counterstain.

[4] = test system: cochlear ganglion neurons; experiment: Survival of dissociated cochlear neurons in culture; type: cell-based; details: E21 rat cochlear ganglia; Formula II 500 nM; NT-3 2 ng/ml in parallel cultures; 48 hr
Experimental: Neuronal enriched cultures from embryonic day 21 (E21) rat cochlear ganglia were prepared as previously described (Ylikoski et al., Hear. Res., 1998, 124:17-26). The cultures were maintained in F14 medium (Life Technologies, Gaithesburg, Md.) containing 10% horse serum (Life Technologies). […] After 48 hr, cultures were fixed with 4% paraformaldehyde and responses were assessed under a phase contrast microscope. Surviving neurons were distinguished by a phase-bright cell body and definite neurites.

[5] = test system: vestibular hair cells (ampullary cristae); experiment: Hair cell counts in ampullary cristae after gentamicin treatment; type: in vivo, guinea pig
Experimental: Two experimental groups were formed. Group 1 guinea pigs served as control and were treated with gentamicin only. The animals were injected s.c. with gentamicin at 120 mg/kg body weight, once daily for 14 days. Three guinea pigs (yielding a total of 6 inner ears) were included in this group. The animals were decapitated 30 days after the start of the injections.
Group 2 guinea pigs were treated with gentamicin plus Formula II. The animals were injected s.c. with GM at 120 mg/kg body weight, plus Formula II at 1 mg/kg, once daily for 14 days. Formula II treatment started 1 day before GM injections. Formula II treatment was continued for 28 or 29 days. Four guinea pigs (8 inner ears) were included in this group. The animals were decapitated 30 days after the start of GM injections.
Guinea pigs were decapitated under deep anaesthesia and the inner ears were perilymphatically fixed and immersed with 2.5% glutaraldehyde in 0.1 M phosphate buffer (pH 7.4), postfixed with 1% osmium tetroxide, and embedded in Epon. Cochleas were processed for cytocochleograms (Ylikoski, Acta Otolaryngol (Stockh) Suppl 326:5-20, 1975). The separately dissected and Epon-embedded vestibular organs were cut for 1 μm-thick sections. Every 25th section was collected onto slides and stained with 1% toluidine blue. […] Two control (GM-treated) and 3 Formula II plus GM-treated ampullae were used for analysis. The presence of cell nuclei in the sensory layer (upper half) of the sensory epithelium was regarded as the presence of hair cells. Supporting cell nuclei were clearly distinguished from hair cells by their position (lower part) in the epithelium and by toluidine blue that stains the hair cells weaker than the supporting cells. Hair cell loss was measured by comparing the number of hair cell nuclei in the sensory layer to the number of […].

[6] = single animal, 1 mg/kg s.c. daily, noise 125 dB SPL 105 min, 1 mg/kg

## CCSCc1ccc2c(c1)c1c3c(c4c5cc(CSCC)ccc5n5c4c1n2C1C[C@](O)(C(=O)OC)[C@]5(C)O1)CNC3=O [Formula II]
[1]; mean of 4 Formula II animals
  % OHC LOST, MEAN: 6.1%
  LOST OUTER SENSORY CELLS (OHC): OCH1, MEAN: 133
  LOST OUTER SENSORY CELLS (OHC): OCH2, MEAN: 107
  LOST OUTER SENSORY CELLS (OHC): OCH3, MEAN: 143
  TOTAL OHC LOST, MEAN: 383
[1]; [6]
  % OHC LOST: 3.1% and 0.8% and 1.4% and 19.0%
  LOST OUTER SENSORY CELLS (OHC): OCH1: 90 and 19 and 36 and 356
  LOST OUTER SENSORY CELLS (OHC): OCH2: 25 and 3 and 18 and 381
  LOST OUTER SENSORY CELLS (OHC): OCH3: 71 and 27 and 46 and 428
  TOTAL OHC LOST: 186 and 49 and 100 and 1195
[2]; Formula II begun prior to the lesion, noise 120 dB 4 kHz 6 hr, 2 weeks post noise
  average threshold shift of control animals greater than that of treated animals: 20-40 dB
[2]; Formula II-treated animals, 2 weeks post noise
  ABR threshold shift versus vehicle-treated, noise-exposed controls: less threshold shift at all frequencies tested
[2]; administration begun 1 or 4 days after exposure to noise
  ABR threshold shift, delayed administration: Decreased threshold shifts
[3]
  TUNEL-labeling in hair cells: prevented
[4]
  survival of cochlear neurons: as efficacious as NT-3
[5]; GM + Formula II, single ampulla, all sections counted
  Total number of hair cells: 518 and 328 and 620
[5]; GM + Formula II, single ampulla, decimal comma
  Hair cells per frame: 1,9 and 2,2
[5]; gentamicin 120 mg/kg plus Formula II 1 mg/kg, relative hair cell loss, n=3 ampullae
  protective effect in the ampullae: 70%
